Results: patent publication US11000033B2, “Ketone or oxime compound, and herbicide” (NISSAN CHEMICAL CORPORATION, priority 2014, dated 2021)

Tests used:
Type in all cases: in vivo
rapeseed = assay: Test Example 4: effect on crop by soil treatment (symbol g); conditions: application herbicide amount 320 g/ha
Summary of the method: (§1)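 Seeds were sown in spots on sterilized diluvial soil in a plastic box and covered with about 1.5 cm of soil. Plants were then grown in a greenhouse at 25° C. to 30° C.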

Veronica persica [1] = assay: Test Example 5: herbicidal effect by foliage application, plastic box (symbol R); conditions: 320 g/ha, 3 weeks after application
Summary of the method: (§2)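 Sowing in sterilized diluvial soil, 14 days' greenhouse growth at 25° C. to 30° C., then uniform small-sprayer foliar application of aqueous emulsion dilution; plants scored three weeks afterwards.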

Setaria viridis = assay: Test Example 5: herbicidal effect by foliage application, plastic box (symbol G); conditions: 320 g/ha, 3 weeks after application
Summary of the method: as §2

rice plant = assay: Test Example 5: effect on crop by foliage application, plastic box (symbol b); conditions: 320 g/ha, 3 weeks after application
Summary of the method: (§3)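 Seeds were sown in spots in sterilized diluvial soil held in a plastic box 21 cm × 13 cm × 7 cm deep, covered with about 1.5 cm of soil, and grown in a greenhouse at 25° C. to 30° C.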

Abutilon theophrasti = assay: Test Example 5: herbicidal effect by foliage application, plastic box (symbol M); conditions: 320 g/ha, 3 weeks after application
Summary of the method: as §2

Digitaria ciliaris [2] = assay: Test Example 5: herbicidal effect by foliage application, plastic box (symbol F); conditions: 320 g/ha, 3 weeks after application
Summary of the method: as §2

Lolium multiflorum Lam. = assay: Test Example 4: herbicidal effect by soil treatment (symbol K); conditions: application herbicide amount 320 g/ha
Summary of the method: (§4)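 Seeds were sown in sterilized diluvial soil, covered with about 1.5 cm of soil, and the soil surface was sprayed with a water-diluted emulsion of the compound at a predetermined rate. Plants grew in a greenhouse at 25° C. to 30° C.; effects were scored visually 3 weeks after application.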

Avena fatua = assay: Test Example 5: herbicidal effect by foliage application, plastic box (symbol I); conditions: 320 g/ha, 3 weeks after application
Summary of the method: as §2

beet [3] = assay: Test Example 4: effect on crop by soil treatment (symbol f); conditions: application herbicide amount 320 g/ha
Summary of the method: as §1

beet [4] = assay: Test Example 5: effect on crop by foliage application, plastic box (symbol f); conditions: 320 g/ha, 3 weeks after application
Summary of the method: as §3

Chenopodium album = assay: Test Example 5: herbicidal effect by foliage application, plastic box (symbol O); conditions: 320 g/ha, 3 weeks after application
Summary of the method: as §2

Stellaria media [5] = assay: Test Example 5: herbicidal effect by foliage application, plastic box (symbol P); conditions: 320 g/ha, 3 weeks after application
Summary of the method: as §2

[6] = test system: Echinochloa crus-galli var. crus-galli; assay: Test Example 4: herbicidal effect by soil treatment (symbol H); conditions: application herbicide amount 320 g/ha
Summary of the method: as §4

Galium spurium [7] = assay: Test Example 4: herbicidal effect by soil treatment (symbol Q); conditions: application herbicide amount 320 g/ha
Summary of the method: as §4

soybean = assay: Test Example 4: effect on crop by soil treatment (symbol d); conditions: application herbicide amount 320 g/ha
Summary of the method: as §1

Digitaria ciliaris [8] = assay: Test Example 4: herbicidal effect by soil treatment (symbol F); conditions: application herbicide amount 320 g/ha
Summary of the method: as §4

Alopecurus myosuroides = assay: Test Example 4: herbicidal effect by soil treatment (symbol J); conditions: application herbicide amount 320 g/ha
Summary of the method: as §4

corn = assay: Test Example 4: effect on crop by soil treatment (symbol c); conditions: application herbicide amount 320 g/ha
Summary of the method: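 The test used sterilized diluvial soil. Seed was set down in spots and overlaid with about 1.5 cm of soil before growth in a greenhouse kept at 25° C. to 30° C.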

[9] = test system: directly sowed rice plant; assay: Test Example 3: effect on crop by foliage application, Wagner pot (symbol b); conditions: application herbicide amount 320 g/ha, Table 24
Summary of the method: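 Steps: fill a 1/10000-are Wagner pot with alluvial soil; add water and mix to submerge at 0.1–0.5 cm depth; sow rice plus Echinochloa crus-galli var. crus-galli, Leptochloa chinensis and Cyperus difformis; grow in a 25–30 °C greenhouse.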

Galium spurium [10] = assay: Test Example 5: herbicidal effect by foliage application, plastic box (symbol Q); conditions: 320 g/ha, 3 weeks after application
Summary of the method: as §2

wheat = assay: Test Example 5: effect on crop by foliage application, plastic box (symbol e); conditions: 320 g/ha, 3 weeks after application
Summary of the method: as §3

rice = assay: Test Example 4: effect on crop by soil treatment (symbol b); conditions: application herbicide amount 320 g/ha
Summary of the method: as §1

Stellaria media [11] = assay: Test Example 4: herbicidal effect by soil treatment (symbol P); conditions: application herbicide amount 320 g/ha
Summary of the method: as §4

Veronica persica [12] = assay: Test Example 4: herbicidal effect by soil treatment (symbol R); conditions: application herbicide amount 320 g/ha
Summary of the method: as §4

Apera spica-venti = assay: Test Example 5: herbicidal effect by foliage application, plastic box (symbol L); conditions: 320 g/ha, 3 weeks after application
Summary of the method: as §2

Compound | Effect on crop grade, g: rapeseed (rapeseed) | R: Veronica persica, herbicidal effect grade (Veronica persica [1]) | G: Setaria viridis, herbicidal effect grade (Setaria viridis) | b: directly sowed rice plant, effect on crop grade (rice plant) | M: Abutilon theophrasti, herbicidal effect grade (Abutilon theophrasti) | F: Digitaria ciliaris, herbicidal effect grade (Digitaria ciliaris [2]) | Herbicidal effect grade, K: Lolium multiflorum Lam. (Lolium multiflorum Lam.) | I: Avena fatua, herbicidal effect grade (Avena fatua) | Effect on crop grade, f: beet (beet [3]) | f: beet, effect on crop grade (beet [4]) | O: Chenopodium album, herbicidal effect grade (Chenopodium album) | P: Stellaria media, herbicidal effect grade (Stellaria media [5]) | Herbicidal effect grade, H: Echinochloa crus-galli var. crus-galli [6] | Herbicidal effect grade, Q: Galium spurium (Galium spurium [7]) | Effect on crop grade, d: soybean (soybean) | Herbicidal effect grade, F: Digitaria ciliaris (Digitaria ciliaris [8]) | Herbicidal effect grade, J: Alopecurus myosuroides (Alopecurus myosuroides) | Effect on crop grade, c: corn (corn) | b (directly sowed rice plant) effect on crop grade [9] | Q: Galium spurium, herbicidal effect grade (Galium spurium [10]) | further results
CC(CC1CC(OC(=O)COc2ccccc2)=C(c2c(C)cc(-c3ccc(Cl)cc3)cc2C)C1=O)=NOCC(F)(F)F (mixture of isomers) [9-027] | 1 (Herbicidal ratio of 5% or higher and lower than 20%) | 2 (Herbicidal ratio of 20% or higher and lower than 40%) | 5 (Herbicidal ratio of 90% or more (almost completely withered)) | 5 (Herbicidal ratio of 90% or more (almost completely withered)) | 0 (Herbicidal ratio of 5% or lower (almost no effect)) | 5 (Herbicidal ratio of 90% or more (almost completely withered)) | 5 (Herbicidal ratio of 90% or more (almost completely withered)) | 5 (Herbicidal ratio of 90% or more (almost completely withered)) | 0 (Herbicidal ratio of 5% or lower (almost no effect)) | 0 (Herbicidal ratio of 5% or lower (almost no effect)) | 2 (Herbicidal ratio of 20% or higher and lower than 40%) | 3 (Herbicidal ratio of 40% or higher and lower than 70%) | 5 (Herbicidal ratio of 90% or more (almost completely withered)) | 0 (Herbicidal ratio of 5% or lower (almost no effect)) | 0 (Herbicidal ratio of 5% or lower (almost no effect)) | 5 (Herbicidal ratio of 90% or more (almost completely withered)) | 5 (Herbicidal ratio of 90% or more (almost completely withered)) | 0 (Herbicidal ratio of 5% or lower (almost no effect)) | 3 (Herbicidal ratio of 40% or higher and lower than 70%) | 3 (Herbicidal ratio of 40% or higher and lower than 70%) | e: wheat, effect on crop grade (wheat): 4 (Herbicidal ratio of 70% or higher and lower than 90%); Effect on crop grade, b: directly sowed rice plant (rice): 5 (Herbicidal ratio of 90% or more (almost completely withered)); Herbicidal effect grade, P: Stellaria media (Stellaria media [11]): 3 (Herbicidal ratio of 40% or higher and lower than 70%); Herbicidal effect grade, R: Veronica persica (Veronica persica [12]): 3 (Herbicidal ratio of 40% or higher and lower than 70%); L: Apera spica-venti, herbicidal effect grade (Apera spica-venti): 5 (Herbicidal ratio of 90% or more (almost completely withered))
CON=C(CC1CC(O)=C(c2c(C)cc(-c3ccccc3)cc2C)C1=O)C1CC1 (mixture of isomers) [9-028] | 4 (Herbicidal ratio of 70% or higher and lower than 90%) | 4 (Herbicidal ratio of 70% or higher and lower than 90%) | 5 (Herbicidal ratio of 90% or more (almost completely withered)) | 5 (Herbicidal ratio of 90% or more (almost completely withered)) | 1 (Herbicidal ratio of 5% or higher and lower than 20%) | 5 (Herbicidal ratio of 90% or more (almost completely withered)) | 5 (Herbicidal ratio of 90% or more (almost completely withered)) | 4 (Herbicidal ratio of 70% or higher and lower than 90%) | 0 (Herbicidal ratio of 5% or lower (almost no effect)) | 3 (Herbicidal ratio of 40% or higher and lower than 70%) | 2 (Herbicidal ratio of 20% or higher and lower than 40%) | 3 (Herbicidal ratio of 40% or higher and lower than 70%) | 5 (Herbicidal ratio of 90% or more (almost completely withered)) | 0 (Herbicidal ratio of 5% or lower (almost no effect)) | 0 (Herbicidal ratio of 5% or lower (almost no effect)) | 5 (Herbicidal ratio of 90% or more (almost completely withered)) | 5 (Herbicidal ratio of 90% or more (almost completely withered)) | 1 (Herbicidal ratio of 5% or higher and lower than 20%) | 5 (Herbicidal ratio of 90% or more (almost completely withered)) | 4 (Herbicidal ratio of 70% or higher and lower than 90%) | e: wheat, effect on crop grade (wheat): 4 (Herbicidal ratio of 70% or higher and lower than 90%); Effect on crop grade, b: directly sowed rice plant (rice): 3 (Herbicidal ratio of 40% or higher and lower than 70%); Herbicidal effect grade, P: Stellaria media (Stellaria media [11]): 0 (Herbicidal ratio of 5% or lower (almost no effect)); Herbicidal effect grade, R: Veronica persica (Veronica persica [12]): 0 (Herbicidal ratio of 5% or lower (almost no effect)); L: Apera spica-venti, herbicidal effect grade (Apera spica-venti): 5 (Herbicidal ratio of 90% or more (almost completely withered))
CON=C(C)CC1(C)CC(O)=C(c2c(C)cc(C)cc2C)C1=O (mixture of isomers) [11-002] | 2 (Herbicidal ratio of 20% or higher and lower than 40%) | 0 (Herbicidal ratio of 5% or lower (almost no effect)) | 4 (Herbicidal ratio of 70% or higher and lower than 90%) | 5 (Herbicidal ratio of 90% or more (almost completely withered)) | 0 (Herbicidal ratio of 5% or lower (almost no effect)) | 4 (Herbicidal ratio of 70% or higher and lower than 90%) | 5 (Herbicidal ratio of 90% or more (almost completely withered)) | 5 (Herbicidal ratio of 90% or more (almost completely withered)) | 0 (Herbicidal ratio of 5% or lower (almost no effect)) | 0 (Herbicidal ratio of 5% or lower (almost no effect)) | 0 (Herbicidal ratio of 5% or lower (almost no effect)) | 0 (Herbicidal ratio of 5% or lower (almost no effect)) | 3 (Herbicidal ratio of 40% or higher and lower than 70%) | 0 (Herbicidal ratio of 5% or lower (almost no effect)) | 0 (Herbicidal ratio of 5% or lower (almost no effect)) | 0 (Herbicidal ratio of 5% or lower (almost no effect)) | 3 (Herbicidal ratio of 40% or higher and lower than 70%) | 1 (Herbicidal ratio of 5% or higher and lower than 20%) | 5 (Herbicidal ratio of 90% or more (almost completely withered)) | 0 (Herbicidal ratio of 5% or lower (almost no effect)) | e: wheat, effect on crop grade (wheat): 2 (Herbicidal ratio of 20% or higher and lower than 40%); Effect on crop grade, b: directly sowed rice plant (rice): 4 (Herbicidal ratio of 70% or higher and lower than 90%); Herbicidal effect grade, P: Stellaria media (Stellaria media [11]): 0 (Herbicidal ratio of 5% or lower (almost no effect)); Herbicidal effect grade, R: Veronica persica (Veronica persica [12]): 0 (Herbicidal ratio of 5% or lower (almost no effect)); L: Apera spica-venti, herbicidal effect grade (Apera spica-venti): 5 (Herbicidal ratio of 90% or more (almost completely withered))
